In patent US8933071B2, “Dimethyl fasudil for inducing polyploidization of megakaryocytes and for treating blood and bone marrow diseases and disorders” (Northwestern University, priority 2008, dated 2015):

How the values were obtained:
[1] = tested on: Y10 cells; experiment: Polyploidization of Y10 cells (DNA content by flow cytometry); assay type: cell-based; settings: wild-type (Y10) cells, 72 hours
Procedure: (§1) FIG. 2 illustrates that SU6656 induces polyploidization and proliferative arrest of megakaryocytic leukemia cells. (A) Y10, (B) GIME, and (C) CMK cells were grown in the presence of TPO, SU6656, or vehicle (DMSO) for 72 hours. DNA content was measured by flow cytometry. The percentages of cells that reach a DNA content of ≧8N are boxed in A and C, those equal to 8N are boxed in B. D) CMK cells were grown as in (C), and cell numbers were enumerated at 0, 24, 48 and 72 h.
(§2) To study how megakaryocytes switch from a proliferative to endomitotic cell cycle, the Src kinase inhibitor SU6656 is being utilized.

[2] = tested on: GIME cells; experiment: Polyploidization of GIME cells (DNA content by flow cytometry); assay type: cell-based; settings: GATA1-null (GIME) cells, 72 hours
Procedure: as §1, with “(A)” for “FIG. 2 illustrates that SU6656 induces polyploidization and proliferative arrest of megakaryocytic leukemia cells. (A)”
DNA content was then assessed by flow cytometry. Numbers above the bar indicate % of cells ≧8N. b) After 48 hours, GIME cells from a) were stained with anti-CD42 antibodies and the cell surface expression of CD42 was evaluated by flow cytometry.
as §2

[3] = tested on: CMK cells; experiment: Polyploidization of CMK cells (DNA content); assay type: cell-based, human; settings: GATA1/JAK3 double mutant CMK cell line, 72 hours
Procedure: as §1, with “(A)” for “FIG. 2 illustrates that SU6656 induces polyploidization and proliferative arrest of megakaryocytic leukemia cells. (A)”
as §2
In collaboration with the Broad Institute, a high throughput screen for small molecules was conducted to identify small molecules that preferentially induce polyploidization or differentiation of megakaryocytes. We screened 10,000 compounds from the Broad's extensive collection of small molecules (including known bioactives, kinase and HDAC inhibitors, and natural products) to identify inducers of megakaryocyte polyploidization. […] 6) Data were analyzed using both MetaXpress software and “Cell Profiler,” software designed at MIT and the Broad Institute. […]

[4] = tested on: primary murine megakaryocytes; experiment: Polyploidization of primary murine megakaryocytes; assay type: cell-based; settings: data not shown
Description: as §2

[5] = tested on: CMK cells; experiment: CMK cell proliferation (cell numbers enumerated); assay type: cell-based, human; settings: CMK cells, 0, 24, 48 and 72 h
Procedure: as §1, §2

[6] = tested on: wild-type and GATA-1 mutant megakaryocyte progenitors; experiment: Proliferation of megakaryocyte progenitors; assay type: cell-based; settings: preliminary data
Description: The paradigm for successful, targeted differentiation therapy is the use of all trans retinoic acid (ATRA) for treatment of Acute Promyelocytic Leukemia (APL) (for a review, see (20). Prior to the development of ATRA therapy, the prognosis for patients with APL, which represents 5-10% of adult AML, was very poor. In contrast, the vast majority of APL patients treated with ATRA achieve hematologic remission (21-23). One aim of the current study is to test novel therapeutic strategies for AMKL, in particular, whether the forced induction of MK polyploidization can serve as a “differentiation therapy” for AMKL. […] Furthermore, megakaryocytes are one of the few cell types that are poised to undergo polyploidization during normal maturation.

[7] = tested on: CMK (human megakaryocytic leukemia) cells; experiment: High throughput screen for inducers of megakaryocyte polyploidization; assay type: cell-based; settings: 10 μM, 72 hours, Hoescht stain, high content imaging
Procedure: In collaboration with the Broad Institute, a high throughput screen for small molecules was conducted to identify small molecules that preferentially induce polyploidization or differentiation of megakaryocytes. We screened 10,000 compounds from the Broad's extensive collection of small molecules (including known bioactives, kinase and HDAC inhibitors, and natural products) to identify inducers of megakaryocyte polyploidization. The screen was performed in the following manner: 1) 4,000 CMK (human megakaryocytic leukemia) cells were plated into each well of a 384-well plate, 2) 100 n1 of compounds (yielding a final concentration of 10 μM) were pinned into the wells, 3) plates were incubated at 37° C. for 72 hours, 4) cells were fixed and stained with Hoescht, and 5) plates were imaged using an ImageXpressMICRO high content imager with 20× objective. Nine images per well were collected. 6) Data were analyzed using both MetaXpress software and “Cell Profiler,” software designed at MIT and the Broad Institute. Seventy-two plates containing duplicates of nearly 10,000 small molecules were screened.

## CN(C)S(=O)(=O)c1ccc2c(c1)/C(=C/c1cc3c([nH]1)CCCC3)C(=O)N2 [SU6656]
[1]
  polyploidization: efficiently promoted polyploidization
[2]
  polyploidization: efficiently promoted polyploidization
[3]
  polyploidization: efficiently promoted polyploidization
[4]
  polyploidization: promote polyploidization
[5]
  proliferation (cell numbers): cessation of proliferation
[6]
  proliferation of megakaryocyte progenitors: effectively reduces proliferation
[7]
  positive in polyploidization screen: positives
